Where a name gives a salt, the structure may show the parent alone.
What was measured:
[1] = system: phenol red in the tracheal secretion; assay: Mucolitic activity in mice: phenol red in the tracheal secretion; type: in vivo
Protocol: Mucolitic Activity in Mice of Ambroxol Nitrate and Ambroxol Hydrochloride
Mucolitic activity in male mice was evaluated according to the Method of Engler and Zselenyi, J. Pharm. Methods 11, 151, 1984. By this method it is determined the quantity of phenol red in the tracheal secretion. The animals were previously administered i.p. at a dose of 500 mg/Kg with the dye dissolved in physiologic solution. 3 groups of mice (weight 18±2 g), of 10 animal each, were treated i.p. with the dye. One group was the control group. Each of the two treated groups received, ten minutes before the above injection, an i.p. injection of 264 micromoles/Kg of Ambroxol nitrate or Ambroxol hydrochloride, respectively. 30 minutes after the phenol red injection, the animals were sacrificed. The trachea was freed from the sorrounding tissues, dissected and washed for 30 minutes in 3 ml of physiologic solution. 0.1 ml of 1 M sodium hydroxyde were then added to the physiologic solution. The washings were centrifuged for 15 minutes at 3000 rpm. A spectrophotometric assay was performed on the supernatant in order to determine the concentration of phenol red in the physiologic solution. Mucolitic activity was determined as % variation of absorbance of the sample in the confront of that of the control group, assumed to be 100%.

[2] = system: histamine-induced bronchoconstriction; assay: Antihistaminic activity: experimental bronchoconstriction by histamine in the guinea pig; details: result in words
[3] = system: cough strokes caused by citric acid aerosol; assay: Anti-tussive activity: cough strokes caused by citric acid aerosol in the guinea pig; type: in vivo; details: 110 micromoles/Kg i.p.; for cough strokes (%): citric acid 7.5% aerosol, 30 minutes before aerosol, cough strokes over 10 minutes referred to control = 100%; for Antitussive potency compared with the corresponding hydrochlorides: result in words
Protocol: Anti-tussive Activity in the Guinea Pig of Dextromethorphan Hydrochloride, Dextromethorphan Nitrate, Dextrorphan Hydrochloride and Dextrorphan Nitrate
Guinea pigs (weight: 430+20) were treated as described by Braga et Al. Arzneim. Forsch./Drug Res. 43, 550, 1993.
In this pharmacological experiment 5 groups of 8 animals each were formed. One group was not treated and was the control group.
Each animal was placed in a cilindrical glass container having one tubing through each of the two circular flat surfaces. Said tubing were, respectively, for the aerosol inlet and outlet. The outlet tubing is connected to a polygraphic system.
The aerosol was formed from a solution 7.5% by weight of citric acid in water.
The air variation inside the glass container was registered before and after a cough stroke caused by the aerosol. One hour later Dextromethorphan hydrochloride, Dextromethorphan nitrate, Dextrorphan hydrochloride and dextrorphan nitrate were i.p. administered in a physiologic solution at a dose of 110 micromoles/Kg. 30 minutes after the injection the animals were treated with the aerosol. It was then registered the number of cough strokes for a time of 10 minutes. In the following Table III are reported the average response obtained from each treated group, referred to that of the control group, made 100%.

heart frequency = assay: Heart frequency (tachycardia) by electrocardiographic device in the capsaicin bronchoconstriction study; type: in vivo; details: guinea pig; 0.3 nmoles/min i.v. infusion; heart frequency as percent with respect to the control (carrier 188 ±7 beats per minute = 100); Nitrate Salt
Protocol: Each groups consisted of eight animals. […] For a total 15 minutes, starting from 5 minutes before capsaicin injection to 10 minutes after) Salbutamol (0.3 nmoles/min), or the corresponding nitrate salt (0.3 nmoles/min) or only the carrier were administered by intravenous infusion were administered to each group.
The heart frequency was determined by an electrocardiographic device, according to the usual methods.

[4] = system: bronchoconstrictive response induced by capsaicin; assay: Experimental bronchoconstriction induced by capsaicin in the guinea pig (tidal air variation, Konzett apparatus); type: in vivo; details: 0.3 nmoles/min i.v., result in words
Protocol: Each groups consisted of eight animals. […] For a total 15 minutes, starting from 5 minutes before capsaicin injection to 10 minutes after) Salbutamol (0.3 nmoles/min), or the corresponding nitrate salt (0.3 nmoles/min) or only the carrier were administered by intravenous infusion were administered to each group. […] The heart frequency was determined by an electrocardiographic device, according to the usual methods.

## Nc1c(Br)cc(Br)cc1CNC1CCC(O)CC1 (centres unmarked) [Ambroxol hydrochloride, reference compound]
[1]; male mice, 264 micromoles/Kg i.p. ten minutes before phenol red 500 mg/Kg i.p., % variation of absorbance versus control group = 100%, hydrochloride
  Mucolitic activity (%): 30%

## Nc1c(Br)cc(Br)cc1CNC1CCC(O)CC1 (centres unmarked) [Ambroxol nitrate, Ambroxol Nitrate Salt]
[1]; mice, 264 micromoles/Kg i.p., result in words
  Mucolitic activity compared with the corresponding hydrochloride: higher than that of the corresponding hydrochloride

## O=C(O)COCCN1CCN(C(c2ccccc2)c2ccc(Cl)cc2)CC1 (centres unmarked) [Cetirizine nitrate, Cetirizine Nitrate Salt]
[2]
  Antihistamine activity compared with Cetirizine hydrochloride: improved antihistamine activity

## COc1ccc2c(c1)[C@@]13CCCC[C@H]1[C@@H](C2)N(C)CC3 [Dextromethorphan hydrochloride, reference compound]
[3]; hydrochloride
  cough strokes (%): 30%

## COc1ccc2c(c1)[C@@]13CCCC[C@H]1[C@@H](C2)N(C)CC3 [Dextromethorphan nitrate, Dextromethorphan Nitrate Salt]
[3]
  Antitussive potency compared with the corresponding hydrochlorides: more potent antitussive agents than the corresponding hydrochlorides
[3]; Nitrate Salt
  cough strokes (%): 0%

## CN1CC[C@]23CCCC[C@H]2[C@H]1Cc1ccc(O)cc13 [Dextrorphan hydrochloride, reference compound]
[3]; hydrochloride
  cough strokes (%): 40%

## CN1CC[C@]23CCCC[C@H]2[C@H]1Cc1ccc(O)cc13 [Dextrorphan nitrate, Dextrorphan Nitrate Salt]
[3]
  Antitussive potency compared with the corresponding hydrochlorides: more potent antitussive agents than the corresponding hydrochlorides
[3]; Nitrate Salt
  cough strokes (%): 0%

## CC(C)(C)NCC(O)c1ccc(O)c(CO)c1 (centres unmarked) [Salbutamol · HNO3, Salbutamol Nitrate Salt]
Heart frequency
  Tachycardia (%): 97%
[4]
  Inhibition of the bronchoconstrictive response induced by capsaicin, compared with Salbutamol: as effective as Salbutamol

From patent publication US6828342B2, “Nitric esters and nitrate salts of specific drugs” (priority 1999, dated 2004)
